Two compounds from ChEMBL document CHEMBL5209566, “Superclomeleon biosensor-based assay for SLC26A9 using HEK293 SLC26A9 JumpIn OE cells” (2022) can be followed below.

The target in the test is T1, Solute carrier family 26 member 9 (Homo sapiens) (UniProt Q7LBE3).
T1 sequence (whole entry): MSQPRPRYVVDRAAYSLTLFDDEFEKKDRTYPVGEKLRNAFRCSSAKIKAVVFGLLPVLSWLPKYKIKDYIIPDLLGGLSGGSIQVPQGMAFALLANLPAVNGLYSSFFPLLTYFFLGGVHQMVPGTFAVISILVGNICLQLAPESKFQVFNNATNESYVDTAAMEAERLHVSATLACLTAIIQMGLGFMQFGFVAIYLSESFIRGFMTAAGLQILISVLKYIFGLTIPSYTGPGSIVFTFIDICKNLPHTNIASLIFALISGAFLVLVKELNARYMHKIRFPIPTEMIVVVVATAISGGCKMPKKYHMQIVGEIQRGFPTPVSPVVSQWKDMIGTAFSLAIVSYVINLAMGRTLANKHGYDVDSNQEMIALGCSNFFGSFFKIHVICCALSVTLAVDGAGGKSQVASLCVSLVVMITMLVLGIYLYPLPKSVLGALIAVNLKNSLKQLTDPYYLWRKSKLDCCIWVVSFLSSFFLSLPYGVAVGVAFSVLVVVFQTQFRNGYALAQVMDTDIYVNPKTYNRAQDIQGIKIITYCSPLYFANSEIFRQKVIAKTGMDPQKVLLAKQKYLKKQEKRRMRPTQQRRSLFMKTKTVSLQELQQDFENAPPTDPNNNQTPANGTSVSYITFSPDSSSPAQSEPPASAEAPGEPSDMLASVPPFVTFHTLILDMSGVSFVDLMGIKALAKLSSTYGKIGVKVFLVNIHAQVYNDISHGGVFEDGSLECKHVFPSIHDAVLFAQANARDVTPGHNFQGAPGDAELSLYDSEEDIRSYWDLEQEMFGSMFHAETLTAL
The test can be described thus: Chloride uptake by the Anion Transporter/Exchanger Protein 9 (SLC26A9) as assessed by a Cl- sensitive FRET (Fluorescence Resonance Energy Transfer) sensor (SuperClomeleon) in HEK-293 cells stably transfected with SLC26A9 (PubChem AID: 1794832). Format: functional, cell-based. To be noted: HEK293.

Where only a bound is given, the exact number is not on record here.

With `Cl`, the proof of principle result was “Substrate. In Comparison To Wild-Type, Cells Expressing Slc26A9 Showed A Specific Transporter Activity, Upon Substrate Addition, Detected As Significantly Higher Sensor Fluorescence Quenching”. As to `O=C(O)c1cccnc1Nc1cccc(C(F)(F)F)c1`, the Inhibition (500 µM) was more than 30%.
